According to patent US12168037B2, “Intracellular IL-1 alpha peptide methods and compositions” (CEDARS-SINAI MEDICAL CENTER, priority 2018, dated 2024):
Ends that are not written are not given here. Peptide text beside a SMILES is read from it. * marks the point of attachment. Cbz = O=C(OCc1ccccc1)*

What was measured:
[1] = Membrane lipid strip binding (ECL detection); conditions: membrane lipid strips incubated with peptide (5 μg) or recombinant protein
Procedure: (§1) FIGS. 12A-12F depict in accordance with various embodiments of the invention, that the iIL-1α-peptide reduces cutaneous melanoma tumor. FIG. 12A-12B) Membrane lipid strips were incubated with (5 μg) SPDIA or Control peptide and detected by ECL. FIG. 12C) B16 or YUMM1.7 cells were treated with SPDIA or Control peptide (40 μg/ml) for 5 h, and pAkt1 and Akt1 in cell lysate were determined by WB. FIG. 12D) Experimental scheme. FIG. 12E) tumor pictures. FIG. 12F) Quantification of tumor volume, ** p<0.05. and Quantification of tumor mass, ** p<0.05. n=5.
FIGS. 14A-14C show intracellular IL-1α reduced Akt1 activation. FIG. 14A) pAkt1 and total Akt1 in cell lysate was determined by WB. FIG. 14B) Membrane lipid strip was incubated with recombinant human proIL-1α. IL-1α was detected by ECL system. FIG. 14C) PIP3 and Na, K-ATPase levels in plasma membrane fraction were determined by WB.
Intracellular IL-1α reduced Akt1 activation.
IL-1α pro-piece reduces melanoma tumor progression. To investigate the suppressive effect of intracellular proIL-1α in melanoma tumor progression, we designed a short Peptide Derived from IL-1A pro-piece (SPDIA) “GKVLKKRRLSL” (SEQ ID NO:1).

[2] = tested on: IL-1α protein; experiment: IL-1α protein level in LPS-stimulated peritoneal macrophages (western blot); assay type: cell-based; conditions: peritoneal macrophages pretreated with peptide 1 hour, stimulated with LPS (3 hours), compared to LPS alone
Procedure: FIG. 2 depicts in accordance with various embodiments of the invention, that TAT-IL-1α peptide diminished IL-1α protein level. Peritoneal macrophages were pretreated with TAT-IL-1α or TAT-control peptides for 1 hour and stimulated with LPS (3 hours). The IL-1α protein level in cell lysate was detected by Western Blot. GAPDH was measured as a loading control.
The inventors investigated whether TAT-IL-1α peptide triggers IL-1α protein degradation by reducing its serine phosphorylation. Peritoneal macrophages were pretreated with TAT-IL-1α or TAT-Control peptides for 1 hour, stimulated with LPS, and the IL-1α protein level in whole cell lysate was detected by western blot (WB) (FIG. 2). The IL-1α protein level was decreased in TAT-IL-1α treated cells.

[3] = tested on: melanoma cells; experiment: Cytotoxicity to melanoma cells; assay type: cell-based, mouse; conditions: 40 μg/ml, 5 h
Procedure: We label the SPDIA peptide with 680XL tag (680XL-SPDIA) using the VivoTag 680XL Protein Labeling Kit (PerkinElmer) for determine half-life and membrane penetrating efficiency of SPDIA peptide. B16 or YUMM1.7 melanoma cells are treated with 680XL-SPDIA peptide at various doses (10-100 μg/ml) and durations (1-10 h), and live images for intracellular expression and half-life of the SPDIA peptide are detected by fluorescence microscopy (Keyence, BZ-X). Further, the cellular cytotoxicity to the B16 and YUMM1.7 melanoma cells are measured by LDH cytotoxicity assay kit.
While we do […] expect to observe any cytotoxicity in vitro, at cells at lower concentrations of SPDIA peptide for longer durations (24, 48 h) and assess cell death.

[4] = tested on: S87A-IL-1α protein; experiment: S87A-IL-1α protein stability in stably transfected 293 cells (western blot); assay type: cell-based, human; conditions: 293 cells stably expressing S87A-IL-1α, MG132 5 hours vs DMSO
Procedure: FIGS. 1A-1C depict in accordance with various embodiments of the invention, that serine phosphorylation is required for IL-1α protein stability. FIG. 1A) Relative expression of IL-1α mRNA by qPCR. FIG. 1B) Western Blot of IL-1α protein level in cell lysates. FIG. 1C) Western blot of IL-1α in cell lysates of cells treated with DMSO or MG132 for 5 hours.
Human IL-1α is phosphorylated at the serine 87 (S87) residue (mouse equivalent to S90) of the N-terminal pro-piece by protein kinase A (PKA). […] IL-1α phosphorylation is required for its membrane localization. A mutant IL-1α plasmid cDNA was made for studying the role of IL-1α subcellular localization: the Serine at 87 was exchanged with Alanine (S87A) using the QuikChange Site-Directed Mutagenesis kit, Cat #200518 and human pCMV-IL-1α-flag plasmid DNA (Sino Biological Inc. Cat #HG10128-M-F). Primers were designed by the QuikChange Primer Design software program.
Wild-type (WT)-IL-1α or mutant S87A-IL-1α plasmid was transfected into 293 cells and stable expressing cells lines were made. These cells express similar levels of IL-1α mRNA (FIG. 1A). IL-1α protein was detected only in WT-IL-1α transfected cells but not mutant S87A-IL-1α transfected cells (FIG. 1B). […] Based on this finding, a pseudosubstrate peptide was made to inhibit IL-1α phosphorylation, which may provide a more convenient way to control IL-1α during inflammation. […]

[5] = molecular target: T1, Akt1 (Mus musculus, UniProt P31750); experiment: Akt1 activation (pAkt1) in melanoma cells by western blot; assay type: cell-based; conditions: B16 or Yumm 1.7 murine melanoma cells, TAT-IL-1α 40 μg/ml, 5 hours, vs TAT-Control peptide
T1 construct: endogenous in cells
Procedure: FIG. 3 depicts in accordance with various embodiments of the invention, that TAT-IL-1α peptide diminished Akt1 activation and increased HK-2 mitochondrial dissociation. B16 or Yumm 1.7 murine melanoma cells were treated with TAT-IL-1α (40 μg/ml) or TAT-Control peptide for 5 hours. HK-2 level and pAkt1 activation in the cytosolic and mitochondrial fraction were detected by Western Blot. GAPDH was measured as a loading control.
FIGS. 10A-10C depict in accordance with various embodiments of the invention, the iIL-1α-peptide reduces Akt1 activation and glycolysis in melanoma cells. […] FIG. 10B) HK-2 and pAkt1 in cytosolic and mitochondrial fraction were determined by WB. […] FIG. 10C) Extracellular acidification rate (ECAR) was measured by Seahorse and compared over time in PBS and iIL-1α-peptide treated mice.
as §1, with “FIG. 12D) Experimental scheme. FIG. 12E) tumor pictures.” left out, “n=5. […]” for “n=5.”

[6] = tested on: hexokinase 2 (HK-2); experiment: HK-2 mitochondrial/cytosolic fraction level in melanoma cells by western blot; assay type: cell-based, mouse; conditions: B16 or Yumm 1.7 cells, 40 μg/ml, 5 hours, vs TAT-Control
Procedure: B16 cells isolated from tumors from WT mice were treated with iIL-1α-mimic peptide (iIL-1α-peptide) (40 μg/ml) or PBS for 5 hours. […] FIG. 10B) HK-2 and pAkt1 in cytosolic and mitochondrial fraction were determined by WB. COX-IV and GAPDH was used as a loading controls.
B16 cells were isolated from WT mice and cultured in-vitro. The cells were treated with the iIL-1α-mimic peptide (iIL-1α peptide) or PBS for 5 hours (FIG. 10).
B16 or Yumm1.7 melanoma cells were treated with PBS or iIL-1α-peptide (40 μg/ml) for 5 hours, and HK-2 levels and Akt1 activation in the mitochondrial and cytosolic fraction were determined by western blot.

[7] = tested on: B16 melanoma cells; experiment: B16 melanoma lung metastasis/colonization model (tail vein injection); assay type: in vivo, mouse; conditions: vs TAT-Control peptide; for melanoma (lung) metastasis: B16 cells i.v. in female WT mice, peptide i.v. five days later, lungs harvested five days post treatment
From the text: FIGS. 4A-4C depict in accordance with various embodiments of the invention, that TAT-IL-1α peptide reduced lung metastasis. FIG. 4A) Experimental Schematic (top), metastatic lungs (bottom images). FIG. 4B) Quantification of tumor number in TAT-Control and TAT-IL-1α. FIG. 4C) Melanin content of the metastatic lungs in TAT-Control and TAT-IL-1α.
FIGS. 11A-11C depict in accordance with various embodiments of the invention, that the iIL-1α-peptide reduces melanoma colonization in the lung. FIG. 11A) Experimental scheme and representative lung pictures. FIG. 11B) Quantification of tumor number, **p<0.01. FIG. 11C) Quantification of melanin content, *p<0.05. n=4.
The B16 (also referred herein as “B16F10”) mouse melanoma metastasis model is widely accepted, as B16 cells injected via tail vein reliably colonize the lungs, with easily identifiable tumors after 7-14 days. While the use of a genetic melanoma model may be ideal, it requires the use of immunodeficient mice or the complicated and expensive humanized mice. While the B16 model may have its known caveats, it has repeatedly given very useful novel mechanistic clues that can be further tested in more relevant models, such as genetically engineered mice. In addition to the B16 model, a mouse melanoma cell line with human genetic drivers that are more relevant to human melanoma formation and progression were also used. To this effect, a non-immunogenic cell line (YUMM1.7) was used. In the YUMM1.7 cells, nearly 50% of human melanomas harbor a gain of function in the Braf^V600E Cdkn2a−/− Pten−/− mutations and they form reliable lung tumors following tail vein injection (5×10^5, in 3 weeks). Other common mutations in human melanoma include CDKN2A (familial melanoma gene), inactivation of tumor suppressors including INK4A, ARF, p53, and PTEN, as well as mutations in proto-oncogenes such as H-RAS, N-RAS, and K-RAS.
The peptides were subsequently tested in vivo. B16 melanoma cells were intravenously (i.v.) injected in the tail vein of female WT mice. Five days later, TAT-IL-1α or TAT-Control peptide was injected in the tail vein (i.v.). Five days post treatment, lungs were harvested and examined for metastasis. […] The tumor number and melanin content were diminished in the TAT-IL-1α treatment group compared to TAT-Control peptide treatment. (FIGS. 4B and 4C).
The mouse models used were C57Bl/6 WT or Il1α−/− mice injected with B16 cells (2×10^5 tail vein), (3×10^5 subcutaneous) or C57Bl/6 WT mice injected with YUMM1.7 cells (5×10^5 subcutaneous). The IL-1α, pAkt1 and HK-2 levels were determined by WB. The glycolytic rate in B16 cells was measured by Seahorse.
The iIL-1α-peptide reduces tumor burden in vivo. The protective role of the iIL-1α-peptide against melanoma colonization was investigated. […] The mice were analyzed 5 days later.

[8] = B16 i.v. model, peptide i.v. day 5

T1 sequence (P31750 whole entry): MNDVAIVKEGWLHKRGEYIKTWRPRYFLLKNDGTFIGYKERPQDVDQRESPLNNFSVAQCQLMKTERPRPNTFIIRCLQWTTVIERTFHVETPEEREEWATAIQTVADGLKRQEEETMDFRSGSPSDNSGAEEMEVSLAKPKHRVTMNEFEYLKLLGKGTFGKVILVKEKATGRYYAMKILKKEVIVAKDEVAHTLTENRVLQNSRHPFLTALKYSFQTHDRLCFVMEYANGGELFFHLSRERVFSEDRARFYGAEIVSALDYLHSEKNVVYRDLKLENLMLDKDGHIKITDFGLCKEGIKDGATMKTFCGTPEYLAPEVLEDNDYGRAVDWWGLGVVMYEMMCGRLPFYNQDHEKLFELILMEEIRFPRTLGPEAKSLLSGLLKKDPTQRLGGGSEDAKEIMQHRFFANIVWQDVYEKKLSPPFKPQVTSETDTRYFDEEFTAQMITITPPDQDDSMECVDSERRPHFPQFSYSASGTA

GKVLKKAALSL [control peptide, SPDIA with arginine residues replaced by alanine, reference compound]
interaction with phosphoinositides on membrane lipid strip [1]: fails to bind with PIP and PIP2

YGRKKRRQRRRLAKARLAL [TAT-Control peptide, control peptide for TAT-IL-1α peptide, reference compound]
IL-1α protein level in whole cell lysate [2]: slightly decreased

GKVLKKRRLSL [SPDIA, GKVLKKRRLSL]
cytotoxicity [3]: without inducing cytotoxicity

CC(C)C[C@@H](C=O)NC(=O)[C@H](CC(C)C)NC(=O)[C@H](CC(C)C)NC(=O)OCc1ccccc1 [MG132] (Cbz-Leu-Leu-Leu-aldehyde)
S87A-IL-1α protein in cell lysate [4]: clearly detected

YGRKKRRQRRRLKKRRLSL [TAT-IL-1α peptide]
IL-1α protein level in whole cell lysate [2]: diminished
IL-1α protein level in whole cell lysate ([2]; listed as TAT-IL-1α): decreased
Akt1 activation (pAkt1) [5]: diminished
Akt1 activation (pAkt1) ([5]; listed as TAT-IL-1α): significantly inhibited
HK-2 mitochondrial dissociation [6]: increased
HK-2 mitochondrial translocation [6]: diminished
melanoma (lung) metastasis [7]: reduced
melanoma (lung) metastasis ([7]; listed as TAT-IL-1α): significantly reduced
melanin content of the metastatic lungs [7, 8]: diminished
tumor number (metastatic lungs) [7, 8]: diminished

B1: proIL-1α: recombinant human proIL-1α incubated with membrane lipid strip (protein, UniProt P01583 1-271, looked up)
pro-form: MAKVPDMFEDLKNCYSENEEDSSSIDHLSLNQKSFYHVSYGPLHEGCMDQSVSLSISETSKTSKLTFKESMVVVATNGKVLKKRRLSLSQSITDDDLEAIANDSEEEIIKPRSAPFSFLSNVKYNFMRIIKYEFILNDALNQSIIRANDQYLTAAALHNLDEAVKFDMGAYKSSKDDAKITVILRISKTQLYVTAQDEDQPVLLKEMPEIPKTITGSETNLLFFWETHGTKNYFTSVAHPNLFIATKQDYWVCLAGGPPSITDFQILENQA
modifications: pro-form
notes: recombinant human proIL-1α incubated with membrane lipid strip
interaction with phosphoinositides on membrane lipid strip [1]: interaction with phosphoinositides such as PI(4)P (PIP), PI(4,5)P2 (PIP2) and PI(3,4,5)P3 (PIP3)
